# Patent US12195490B2, “STRAD-binding agents and uses thereof” (The Regents of the University of California, priority 2020, dated 2025)
# Where a name gives a salt, the structure may show the parent alone.
# Test system: ACHN cell line
# Test: drug screen of the SelleckChem kinase inhibitor library with and without 5 uM SU-329, Cell-Titer Glo after 5 days
# Type: cell-based
# Settings: kinase inhibitor at 200 nM with and without 5 uM SU329; ACHN cell line; 5 days; Cell-Titer Glo
row,Compound,log2fc
1,CCOc1ccn(-c2ccc(F)cc2)c(=O)c1C(=O)Nc1ccc(Oc2ccnc(N)c2Cl)c(F)c1 [BMS-777607],−0.5095
2,CS(=O)(=O)N1CCc2c(-c3cnc(N)nc3)nc(N3CCOCC3)nc21 [CH5132799],−1.044
3,CNC(=O)c1cc(COc2nnc(Nc3ccc(Cl)cc3)c3ccoc23)ccn1 [Telatinib],0.2479
4,CC(C)(C)c1cc(NC(=O)Nc2ccc(-c3cn4c(n3)sc3cc(OCCN5CCOCC5)ccc34)cc2)no1 [Quizartinib (AC220)],0.278
5,CN(C)Cc1cccc(N/C(=C2\C(=O)Nc3cc(C(N)=O)ccc32)c2ccccc2)c1 [BIX 02188],0.2216
6,Cc1cc(Nc2cc(N3CCN(C)CC3)nc(/C=C/c3ccccc3)n2)n[nH]1 [ENMD-2076],0.6799
7,O=C1NC(=O)/C(=C/c2ccc(-c3ccc(F)cc3O)o2)S1 [AS-252424],−0.1563
8,CCc1nc(-c2cccc(C)c2)c(-c2ccnc(NC(=O)c3ccccc3)c2)s1 [TAK-715],0.02439
9,"Cc1cc(Nc2cc(N3CCN(C)CC3)nc(Sc3ccc(NC(=O)C4CC4)cc3)n2)n[nH]1 [Tozasertib (VX-680, MK-0457)]",0.9265
10,CCOC(=O)c1cnc2ccc(-c3cncc(NS(=O)(=O)c4ccccc4)c3)cn12 [HS-173],0.4717
11,CCOc1cc(N2CCC(O)CC2)ccc1Nc1ncc2c(n1)N(C)c1ccccc1C(=O)N2C [XMD8-92],−0.09901
12,c1cncc(CN2CCC(n3ncc4c(N5CCOCC5)nc(-c5ccc6[nH]ccc6c5)nc43)CC2)c1 [WAY-600],−1.322
13,CCC[C@H](NC(=O)/C(C#N)=C/c1cccc(Br)n1)c1ccccc1 [Degrasyn (WP1130)],−0.132
14,CNc1nc(-c2ccc3c(N)n[nH]c3c2)cc(N2C[C@@H](C(=O)NC3CCCCC3)CC[C@H]2C)n1 [GSK2334470],−1.111
15,"CC(C)(C)c1nc(-c2cccc(NS(=O)(=O)c3c(F)cccc3F)c2F)c(-c2ccnc(N)n2)s1 [Dabrafenib (GSK2118436), dabrafenib, reference compound]",−0.314
16,CN1CC[C@H](c2c(O)cc(O)c3c(=O)cc(-c4ccccc4Cl)oc23)[C@H](O)C1 [Flavopiridol HCl],1.693
17,CN(c1ncccc1CNc1nc(Nc2ccc3c(c2)CC(=O)N3)ncc1C(F)(F)F)S(C)(=O)=O [PF-562271],0.8258
18,"Cc1c(CN2CCN(C(=O)[C@H](C)O)CC2)sc2c(N3CCOCC3)nc(-c3cnc(N)nc3)nc12 [Apitolisib (GDC-0980, RG7422)]",−0.658
19,COc1ccc(S(=O)(=O)N(C(C)=O)c2ccccc2/C=C/c2cc[n+]([O-])cc2)cc1 [HMN-214],0.2477
20,COc1ccc2c(c1)c(C1=C(c3c[nH]c4ccccc34)C(=O)NC1=O)cn2CCCN(C)C [Go 6983],0.08992
21,CC[C@@H]1C(=O)N(C)c2cnc(Nc3ccc(C(=O)N[C@H]4CC[C@H](N5CCN(CC6CC6)CC5)CC4)cc3OC)nc2N1C(C)C [Volasertib (BI 6727)],0.6372
22,CS(=O)(=O)c1cccc(CNc2nc(Nc3ccc4c(c3)CCC(=O)N4)ncc2C(F)(F)F)c1 [PF-573228],0.4325
23,CNC(=O)Nc1ccc(-c2nc(N3CC4CCC(C3)O4)c3cnn(C4CCC5(CC4)OCCO5)c3n2)cc1 [WYE-125132 (WYE-132)],0.04946

row,Compound,log2fc
1,COc1cc2ncnc(Nc3ccc(F)c(Cl)c3)c2cc1OCCCN1CCOCC1 [Gefitinib (ZD1839)],0.4905
2,"C#Cc1cccc(Nc2ncnc3cc(OC)c(OCCCCCCC(=O)NO)cc23)c1 [CUDC-101, reference compound]",0.1269
3,Cn1sc(=O)n(Cc2ccccc2)c1=O [TDZD-8],0.1552
4,S=C(NCc1ccc2c(c1)OCO2)N1CCN(c2ncnc3c2oc2ccccc23)CC1 [Amuvatinib (MP-470)],−0.2594
5,C[C@@H]1COCCN1c1cc(C2(S(C)(=O)=O)CC2)nc(-c2cccc3[nH]ccc23)n1 [AZ20],−0.01528
6,CCc1cc(Nc2nccc(-c3c(-c4ccc(OC)c(C(=O)Nc5c(F)cccc5F)c4)nc4ccccn34)n2)c(OC)cc1N1CCC(N2CCN(S(C)(=O)=O)CC2)CC1 [GSK1904529A],0.6211
7,CN(C)Cc1cccc(N/C(=C2\C(=O)Nc3cc(C(=O)N(C)C)ccc32)c2ccccc2)c1 [BIX 02189],−0.08248
8,Cc1cc(NC(=O)c2cccc(NC(=O)/C=C/CN(C)C)c2)ccc1Nc1nccc(-c2cccnc2)n1 [JNK-IN-8],0.5696
9,O=C(Nc1c[nH]nc1-c1nc2ccc(CN3CCOCC3)cc2[nH]1)NC1CC1 [AT9283],2.163
10,O=C(O)c1ccc(Nc2ncc3c(n2)-c2ccc(Cl)cc2C(c2c(F)cccc2F)=NC3)cc1 [MLN8054],0.07059
11,C=CC(=O)Nc1cccc(Oc2nc(Nc3ccc(N4CCN(C)CC4)cc3OC)ncc2Cl)c1 [WZ4003],−0.1405
12,CN1CCCN(C(=O)c2cccc(-c3ccc(/C=C4/C(=O)Nc5ccc(Cl)cc54)o3)c2)CC1.Cl [CX-6258 HCl],−0.355
13,Cc1cc(C)c(/C=C2\C(=O)Nc3ccccc32)[nH]1 [Semaxanib (SU5416)],−0.8277
14,CCn1c(N)c(C(=O)NC)c(=O)c2ccc(C#C[C@@](C)(O)COC)nc21 [SAR131675],0.374
15,"CS(=O)(=O)CCNCc1ccc(-c2ccc3ncnc(Nc4ccc(OCc5cccc(F)c5)c(Cl)c4)c3c2)o1 [Lapatinib (GW-572016) Ditosylate, lapatinib, reference compound]",0.212
16,"C=CC(=O)Nc1cccc(Oc2nc(Nc3ccc(N4CCN(C)CC4)cc3)ncc2Cl)c1 [WZ3146, reference compound]",0.05459
17,CC(C)(C)n1nc(-c2ccc(Cl)cc2)c2c(N)ncnc21 [PP2],−0.01088
18,Cc1ccc(NC(=O)c2ccc(CN3CCN(C)CC3)cc2)cc1Nc1nc(-c2cccnc2)cs1 [Masitinib (AB1010)],0.1874
19,O=C1Nc2cc(Br)ccc2/C1=C1/Nc2ccccc2/C1=N\O [BIO],−0.1795
20,KX2-391,0.3892
21,Cc1ccc(Nc2nccc(N(C)c3ccc4c(C)n(C)nc4c3)n2)cc1S(N)(=O)=O.Cl [Pazopanib HCl (GW786034 HCl)],0.1817
22,CN1CC[C@H](c2c(O)cc(O)c3c(=O)cc(-c4ccccc4Cl)oc23)[C@H](O)C1 [Flavopiridol (Alvocidib)],1.05
23,Cc1c(NC(=O)c2ccc(C(C)(C)C)cc2)cccc1-c1cn(C)c(=O)c(Nc2ccc(C(=O)N3CCOCC3)cc2)n1 [CGI1746],0.8939

row,Compound,log2fc
1,Cc1c(NC(=O)OC[C@@H]2COCCN2)cn2ncnc(Nc3ccc4c(cnn4Cc4cccc(F)c4)c3)c12 [AC480 (BMS-599626)],0.6806
2,"CCN1CCN(Cc2ccc(-c3cc4c(N[C@H](C)c5ccccc5)ncnc4[nH]3)cc2)CC1 [AEE788 (NVP-AEE788), AEE788, reference compound]",0.07427
3,NC(=O)c1cccc(-c2cc(Nc3ccc(OC(F)(F)F)cc3)ncn2)c1 [GNF-2],0.1337
4,Nc1ccc(-c2ccc3ncc4ccc(=O)n(-c5cccc(C(F)(F)F)c5)c4c3c2)cn1 [Torin 2],1.267
5,CO[C@H]1C[C@@H]2CC[C@@H](C)[C@@](O)(O2)C(=O)C(=O)N2CCCC[C@H]2C(=O)O[C@H]([C@H](C)C[C@@H]2CC[C@@H](O)[C@H](OC)C2)CC(=O)[C@H](C)/C=C(\C)[C@@H](O)[C@@H](OC)C(=O)[C@H](C)C[C@H](C)/C=C/C=C/C=C/1C [Rapamycin (Sirolimus)],−1.552
6,CN(C[C@@H]1COCCO1)S(=O)(=O)Nc1ccc2ccc3ncc(-c4cnn(C)c4)cc3c(=O)c2c1 [MK-2461],0.09192
7,CCN(CC)CCCCNc1ncc2cc(-c3cc(OC)cc(OC)c3)c(NC(=O)NC(C)(C)C)nc2n1 [PD173074],0.1032
8,CC(C)(C)c1cc(/C=C(\C#N)C(N)=S)cc(C(C)(C)C)c1O [Tyrphostin AG 879],0.3391
9,COc1cc2nccc(Oc3ccc(NC(=O)C4(C(=O)Nc5ccc(F)cc5)CC4)cc3)c2cc1OC.O=C(O)C[C@H](O)C(=O)O [Cabozantinib malate (XL184)],0.5713
10,Cc1nc(Nc2n[nH]c3c2CN(C(=O)N[C@H](CN(C)C)c2ccccc2)C3(C)C)c2sccc2n1 [PF-3758309],0.8283
11,CO[C@H]1C[C@@H]2CC[C@@H](C)[C@@](O)(O2)C(=O)C(=O)N2CCCC[C@H]2C(=O)O[C@H]([C@H](C)C[C@@H]2CC[C@H](n3cnnn3)[C@H](OC)C2)CC(=O)[C@H](C)/C=C(\C)[C@@H](O)[C@@H](OC)C(=O)[C@H](C)C[C@H](C)/C=C/C=C/C=C/1C [Zotarolimus (ABT-578)],−1.34
12,N#Cc1c(O)c2c(-c3ccc(-c4ccccc4O)cc3)csc2[nH]c1=O [A-769662],0.1798
13,KN-62,−0.07258
14,CN1CCN(c2ccc(Nc3cc(-c4cccc(-n5ccc6cc(C7CC7)cc(F)c6c5=O)c4CO)cn(C)c3=O)nc2)CC1 [RN486],0.08695
15,COc1cc(N2CCC(N)CC2)ccc1Nc1ncc(Cl)c(-c2c[nH]c3ccccc23)n1 [AZD3463],−0.06328
16,"CO[C@H]1C[C@@H]2CC[C@@H](C)[C@@](O)(O2)C(=O)C(=O)N2CCCC[C@H]2C(=O)O[C@H]([C@H](C)C[C@@H]2CC[C@@H](OC(=O)C(C)(CO)CO)[C@H](OC)C2)CC(=O)[C@H](C)/C=C(\C)[C@@H](O)[C@@H](OC)C(=O)[C@H](C)C[C@H](C)/C=C/C=C/C=C/1C [Temsirolimus (CCI-779, NSC 683864)]",−1.524
17,Cc1[nH]c(/C=C2\C(=O)Nc3ccc(S(=O)(=O)N(C)c4cccc(Cl)c4)cc32)c(C)c1C(=O)N1CCN(C)CC1 [SU11274],0.1013
18,NC(=O)Nc1sc(-c2ccc(F)cc2)cc1C(N)=O [TPCA-1],−0.08928
19,PF-477736,−2.035
20,Cc1cc2c(F)c(Oc3ncnn4cc(OC[C@@H](C)OC(=O)[C@H](C)N)c(C)c34)ccc2[nH]1 [Brivanib Alaninate (BMS-582664)],0.04321
21,Cc1cnc(Nc2ccc(N3CCN(C)CC3)cc2)nc1Nc1cccc(S(=O)(=O)NC(C)(C)C)c1 [TG101209],−0.1573
22,FC(F)(F)c1ccc(/C=C/c2nc(COc3ccc(CCCCn4ccnn4)cc3)co2)cc1 [Mubritinib (TAK 165)],0.225
